Test results from patent publication US20160082133A1, “CHEMICAL EXCHANGE SATURATION TRANSFER (CEST) BASED MRI USING REPORTER GENES AND SUBSTRATES AND METHODS THEREOF” (The Johns Hopkins University, priority 2013, published 2016).
Entries after “also recorded” stand apart in the source; their conditions may differ.

Legend:
[1] = In vitro CEST-MRI of thymidine analogues at 11.7 T; type: physicochemical; conditions: pH 7.4, 37° C.
Protocol: All compounds were dissolved at a concentration of 20 mM in phosphate-buffered saline (PBS) (pH=7.4) and placed in microcapillaries, as described previously.^17 CESTMRI experiments were performed on a vertical 11.7 T scanner (Bruker Avance system) at 37° C. A modified RARE sequence (TR/TE=10 000/9.4 ms; RARE factor=16; 1 mm slice thickness; FOV=11×11 mm^2; matrix size=64×32; resolution=0.17×0.34 mm^2; and NA=2) including a magnetization transfer (MT) module ([…]) was used to acquire CEST-weighted images from −8 to +8 ppm with increments of 0.2 ppm around the water resonance, which was assigned to be at 0 ppm. Pixel-based B0 correction was used as described before using the same parameters as above except for TR=1500 ms and B1/tsat=21 Hz/500 ms, with a sweep range from −2 to +2 ppm (0.1 ppm steps). Data processing was performed using custom-written scripts in MATLAB (Mathworks). Mean CEST spectra were plotted from an ROI for each sample, after B0 correction. MTRasym=100×(S^−Aω−S^AωA/^‘−’0)/3 was computed at different offsets Aω.

293^HSV1-tk cells = assay: Cell viability assay (CellTiter-Blue); type: cell-based, human; conditions: 0.5 mg/ml, 4 and 24 hours
Protocol: Cell viability assay was performed using CellTiter-Blue® Cell Viability Assay (Promega), which provides a fluorometric method for estimating the number of viable cells present in 96 well plate. HEK293FT cells transduced with the HSV1-tk (293^HSV1-tk) were plated in 96 well-plate (10,000 cells/well). Cells were incubated for a periods of 4 hours and 24 hours in the presence of ganciclovir (GCV, 0.5 mg/ml in cell medium), compound 2 (0.5 mg/ml in cell medium) and medium (as control). CellTiter-Blue® Reagent was added (20 μl/well) and plate was incubated for 3 hours at 37° C. Finally, fluorescence 560/590 nm was recorded and values obtained from probe containing wells (GCV or 2, N=4) were normalized to values of non-treated cells (control wells) to determine the % of viable cells after the incubation period.

[2] = at 5 ppm for 20 nM agent (so in the source)

CC1(C)CN([C@H]2C[C@H](O)[C@@H](CO)O2)C(=O)NC1=O [Compound 2, 5-Methyl-5,6-dihydrothymidine]
MTRasym (8.5 Hz) [1, 2]: 4%
MTRasym (170 Hz) [1, 2]: 16%
MTRasym (213 Hz) [1, 2]: 21%
MTRasym (128 Hz) ([1]; at 5 ppm for 20 mM agent): 10%
toxic effect on 293^HSV1-tk cells (293^HSV1-tk cells): did not show any toxic effect; also recorded: no toxic effect
